Assay results as given in article PMC3017127, “Survey of Tyrosine Kinase Signaling Reveals ROS Kinase Fusions in Human Cholangiocarcinoma” (PLoS ONE, 2011).

Columns and labels:
FIG-ROS(S) = tested on: T1, FIG-ROS(S); assay: BaF3 cell viability (CellTiter […] AQueous One, MTS), IL-3-independent growth; format: cell-based, Mus musculus; settings: 72 h; growth read-out of cells depending on the fusion kinase; ROS phosphorylation read by Western blot in a separate 3 h test
T1 construct: gene ROS1; C-terminal Myc tag; MSCV-Neo in murine BaF3 cells; with Golgi-associated PDZ and coiled-coil motif-containing protein

NPM-ALK = tested on: T2, NPM-ALK; assay: Karpas-299 cell viability (CellTiter […] AQueous One, MTS); format: cell-based; settings: 72 h; growth read-out of human lymphoma cells with endogenous fusion; control line
T2 construct: endogenous NPM-ALK fusion in Karpas-299 cells; with Nucleophosmin

FIG-ROS(L) = tested on: T3, FIG-ROS(L); assay: BaF3 cell viability (CellTiter […] AQueous One, MTS), IL-3-independent growth; format: cell-based, Mus musculus; settings: 72 h; growth read-out of cells depending on the fusion kinase; ROS phosphorylation read by Western blot in a separate 3 h test
T3 construct: gene ROS1; C-terminal Myc tag; MSCV-Neo in murine BaF3 cells; with Golgi-associated PDZ and coiled-coil motif-containing protein

IC50 (FIG-ROS(S)): 10 nM
IC50 (FIG-ROS(L)): 1.8 nM
Compound: COc1cc(N2CCC(N3CCN(C)CC3)CC2)ccc1Nc1ncc(Cl)c(Nc2ccccc2S(=O)(=O)C(C)C)n1 [TAE684]
